Assay [1] has as its target hWRN(519-1227)_C-H3CV-GFP-10His (Homo sapiens, UniProt Q14191). Description: Helicase Assay for WRN Inhibition (ATP-dependent, fluorescence based).
Another assay deals with T1, WRN C727 (Homo sapiens, UniProt Q14191).
T1 construct: endogenous in cells; host or cells: OCI-AML2
Description: Target engagement, in vitro (lysate), OCI-AML2. Conditions: read-out: OCI-AML2 WRN C727 TE50 in vitro (lysate). The class given is binding. The procedure, abridged:
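Percent engagement of WRN C727 is expressed against DMSO-treated samples, measured by PRM mass spectrometry of streptavidin-enriched, probe-tagged tryptic peptides. Compound dose responses preceded probe labelling of solvent-exposed cysteines, in either living OCI-AML2 cells or their lysates.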

The next assay has as its system SW480 cells. Description: Cell growth assay (CellTiter-Glo 2.0), SW480 MSS cell line. Conditions: Homo sapiens, SW480, 120 h, read-out: Cell Growth Inhibition GI50 SW480. (ATP-based viability assays read luminescence as a measure of living cells.)
The test system of the next assay is HCT 116 cells. Description: Cell growth assay (CellTiter-Glo 2.0), HCT 116 MSI-H cell line. Conditions: Homo sapiens, HCT-116, 120 h, read-out: Cell Growth Inhibition GI50 HCT-116.
Where [2] appears, read: WRN Helicase IC50, 30 min preincubation with ATP, 30 min reaction.

The values that follow come from patent US20250188040A1, “PHARMACEUTICAL COMPOSITIONS COMPRISING WRN HELICASE INHIBITORS” (Vividion Therapeutics, Inc., priority 2022, published 2025).

The GI50 is the concentration giving 50% growth inhibition.

Structures are written as SMILES. Where two headings read alike, the source gives them in different places.

T1 sequence (Q14191 whole entry): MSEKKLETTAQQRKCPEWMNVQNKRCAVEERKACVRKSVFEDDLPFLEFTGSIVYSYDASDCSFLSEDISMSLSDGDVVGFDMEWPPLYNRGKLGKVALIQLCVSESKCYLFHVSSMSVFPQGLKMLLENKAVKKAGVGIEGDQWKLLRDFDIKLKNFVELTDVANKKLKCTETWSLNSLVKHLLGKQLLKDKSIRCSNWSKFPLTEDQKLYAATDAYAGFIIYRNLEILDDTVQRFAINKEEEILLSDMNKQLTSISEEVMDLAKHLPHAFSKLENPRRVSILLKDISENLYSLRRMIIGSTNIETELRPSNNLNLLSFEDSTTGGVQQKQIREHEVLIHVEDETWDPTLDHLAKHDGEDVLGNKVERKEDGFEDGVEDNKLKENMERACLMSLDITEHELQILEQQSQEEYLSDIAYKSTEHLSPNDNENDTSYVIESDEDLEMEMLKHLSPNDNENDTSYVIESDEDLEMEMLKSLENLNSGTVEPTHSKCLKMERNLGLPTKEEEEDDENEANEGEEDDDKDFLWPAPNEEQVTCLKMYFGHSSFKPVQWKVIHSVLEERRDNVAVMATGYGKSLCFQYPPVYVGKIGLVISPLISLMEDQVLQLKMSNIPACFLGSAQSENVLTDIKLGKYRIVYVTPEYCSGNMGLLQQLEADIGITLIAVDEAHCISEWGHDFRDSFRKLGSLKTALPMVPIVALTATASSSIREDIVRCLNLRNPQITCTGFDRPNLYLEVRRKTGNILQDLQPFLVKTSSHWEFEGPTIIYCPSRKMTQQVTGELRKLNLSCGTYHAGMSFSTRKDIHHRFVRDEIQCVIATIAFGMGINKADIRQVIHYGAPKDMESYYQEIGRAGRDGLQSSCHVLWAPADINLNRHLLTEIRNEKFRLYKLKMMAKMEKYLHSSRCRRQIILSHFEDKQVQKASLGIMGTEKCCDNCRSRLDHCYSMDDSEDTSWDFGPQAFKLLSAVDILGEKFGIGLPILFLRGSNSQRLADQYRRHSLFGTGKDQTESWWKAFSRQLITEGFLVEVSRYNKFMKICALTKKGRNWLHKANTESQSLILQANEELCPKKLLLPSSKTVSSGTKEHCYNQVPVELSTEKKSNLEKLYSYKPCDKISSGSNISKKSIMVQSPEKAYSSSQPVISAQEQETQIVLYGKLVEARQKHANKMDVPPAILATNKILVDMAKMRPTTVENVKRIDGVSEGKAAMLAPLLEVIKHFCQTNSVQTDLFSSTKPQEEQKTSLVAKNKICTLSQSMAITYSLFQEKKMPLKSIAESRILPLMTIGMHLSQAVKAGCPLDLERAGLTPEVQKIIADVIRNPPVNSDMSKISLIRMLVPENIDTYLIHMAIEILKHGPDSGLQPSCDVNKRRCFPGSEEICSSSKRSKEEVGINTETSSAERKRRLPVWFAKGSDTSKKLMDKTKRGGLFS
Sequence of hWRN(519-1227)_C-H3CV-GFP-10His (Q14191 519-1227): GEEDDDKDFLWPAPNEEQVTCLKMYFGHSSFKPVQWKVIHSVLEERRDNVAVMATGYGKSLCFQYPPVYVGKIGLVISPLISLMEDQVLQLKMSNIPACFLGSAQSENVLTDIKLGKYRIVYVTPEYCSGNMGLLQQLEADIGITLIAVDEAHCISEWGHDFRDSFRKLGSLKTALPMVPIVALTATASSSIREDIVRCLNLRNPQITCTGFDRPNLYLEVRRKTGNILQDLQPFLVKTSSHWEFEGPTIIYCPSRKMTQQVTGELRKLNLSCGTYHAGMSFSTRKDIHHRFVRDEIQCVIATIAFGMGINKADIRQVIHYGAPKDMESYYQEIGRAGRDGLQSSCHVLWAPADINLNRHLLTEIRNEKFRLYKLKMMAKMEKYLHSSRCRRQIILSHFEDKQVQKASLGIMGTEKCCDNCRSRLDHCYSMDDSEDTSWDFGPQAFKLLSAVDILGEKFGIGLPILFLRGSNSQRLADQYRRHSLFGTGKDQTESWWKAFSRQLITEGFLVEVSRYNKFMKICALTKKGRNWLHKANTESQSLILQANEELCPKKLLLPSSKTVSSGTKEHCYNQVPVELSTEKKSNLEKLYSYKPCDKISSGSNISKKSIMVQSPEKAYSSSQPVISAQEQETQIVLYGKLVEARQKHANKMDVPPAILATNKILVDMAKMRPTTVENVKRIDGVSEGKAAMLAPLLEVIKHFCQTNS
Description for SW480 cells: The effects of compound on cellular viability were determined using the CellTiter-Glo® 2.0 Luminescent Cell Viability Assay (Promega, Madison, WI).
SW480 cells were seeded at 1,000 cells per well in Eagle's Minimum Essential Medium (EMEM) with 10% FBS. Both cell lines were seeded in a volume of 50 μL medium per well. […] The concentration range was adjusted as needed for compounds of different potencies. The cells treated with compounds were incubated for 5 days at 37° C. in 5% CO2. […] The plate was then read on a Clariostar plate reader (BMG Labtech, Cary, NC) in luminescence mode. The previously measured baseline cell viability was subtracted from the luminescence value of each well, and cell viability (% of DMSO) was plotted as a function of log compound concentration. The EC50 was then calculated for each compound using Dotmatics Software (San Diego, CA).

`C[C@@H](/C=C/S(C)(=O)=O)NC(=O)c1cnc(C2CCCC2)nc1Oc1ccccc1F` [Example 115, (S,E)-2-cyclopentyl-4-(2-fluorophenoxy)-N-(4-(methylsulfonyl)but-3-en-2-yl)pyrimidine-5-carboxamide]: the IC50 in assay [1] (setting [2]) came out at 2900 nM; on WRN C727, 30100 nM. For the same compound, the figures for the GI50 in the assay with SW480 cells and in the assay on HCT 116 cells were greater than 10000 nM and 2100 nM, respectively.
`CC1(c2ncc(C(=O)N3CC(=CS(C)(=O)=O)C3)c(Oc3ccccc3)n2)CC1` [Example 39, (2-(1-methylcyclopropyl)-4-phenoxypyrimidin-5-yl)(3-((methylsulfonyl)methylene)azetidin-1-yl)methanone]: the IC50 was determined as 240 nM in assay [1] and 640 nM at WRN C727. Besides, the values for the GI50 in the assay with SW480 cells and with HCT 116 cells were 14000 nM and 110 nM, respectively.
As to `CS(=O)(=O)/C=C/CNC(=O)c1cnc(C2CCCC2)nc1Oc1cccc(Cl)c1` [Example 117, (E)-4-(3-chlorophenoxy)-2-cyclopentyl-N-(3-(methylsulfonyl)allyl)pyrimidine-5-carboxamide], the IC50 was 6700 nM in assay [1] (setting [2]) and greater than 100000 nM at WRN C727. In addition, the GI50 in the assay on SW480 cells worked out at 7400 nM; with HCT 116 cells it was 6000 nM.
As for `CC(F)(F)c1nc(Oc2ccccc2)c(C(=O)N[C@H](/C=C/S(C)(=O)=O)C2CC2)cc1F` [Example 235, (S,E)-N-(1-cyclopropyl-3-(methylsulfonyl)allyl)-6-(1,1-difluoroethyl)-5-fluoro-2-phenoxynicotinamide], the IC50 in assay [1] (setting [2]) is 89.3 nM; at WRN C727, 70000 nM. In addition, the GI50 in the assay with SW480 cells came to 8300 nM; in the assay with HCT 116 cells, 39.4 nM.
As for `CS(=O)(=O)/C=C/C1CN(C(=O)c2cnc(C3CC3)nc2Oc2ccccc2)C1` (single isomer, unassigned) [Example 24, (E)-(2-cyclopropyl-4-phenoxypyrimidin-5-yl)(3-(2-(methylsulfonyl)vinyl)azetidin-1-yl)methanone], the IC50 in assay [1] is 20000 nM; at WRN C727 it was greater than 100000 nM. The values for the GI50 in the assay with SW480 cells and in the assay with HCT 116 cells were greater than 10000 nM and 7700 nM, respectively.
As to `CS(=O)(=O)/C=C/[C@@H](NC(=O)c1cnc(C2CCC2)nc1Oc1ccccc1)C1CC1` [Example 45, (S,E)-2-cyclobutyl-N-(1-cyclopropyl-3-(methylsulfonyl)allyl)-4-phenoxypyrimidine-5-carboxamide], the results for the IC50 (in assay [1] (setting [2]); at WRN C727) were 86 nM and 110 nM, respectively. Moreover, the GI50 with SW480 cells was found to be 13000 nM; with HCT 116 cells, 36.7 nM.
Regarding `CS(=O)(=O)/C=C/[C@@H](NC(=O)c1cnc([C@H]2C[C@H](C)C2)nc1Oc1ccccc1)C1CC1` (single isomer, unassigned) [Example 49], the IC50 in assay [1] (setting [2]) was found to be 92 nM; at WRN C727, 220 nM. Also, the GI50 with SW480 cells is 5190 nM; with HCT 116 cells, 60.2 nM.
The corresponding values for `CS(=O)(=O)/C=C/[C@@H](NC(=O)c1cnc(C2CCCC2)nc1Oc1ccccc1)C1CC1` [Example 8, (S,E)-2-cyclopentyl-N-(1-cyclopropyl-3-(methylsulfonyl)allyl)-4-phenoxypyrimidine-5-carboxamide] are 75.8 nM, 195 nM, 6720 nM and 44 nM.
For the compound `CCN(C)c1ncc(C(=O)N[C@H](/C=C/S(C)(=O)=O)C2CC2)c(Oc2ccccc2)n1` [Example 185, (S,E)-N-(1-cyclopropyl-3-(methylsulfonyl)allyl)-2-(ethyl(methyl)amino)-4-phenoxypyrimidine-5-carboxamide], the IC50 was determined as 239 nM in assay [1] (setting [2]) and 1720 nM at WRN C727. Also, the GI50 amounted to 5400 nM in the assay on SW480 cells and 27.4 nM with HCT 116 cells.
`CS(=O)(=O)/C=C\C1CN(C(=O)c2cnc(C3CC3)nc2Oc2ccccc2)C1` (single isomer, unassigned) [Example 23, (Z)-(2-cyclopropyl-4-phenoxypyrimidin-5-yl)(3-(2-(methylsulfonyl)vinyl)azetidin-1-yl)methanone]: the IC50 in assay [1] turned out to be 3400 nM; on WRN C727, 8830 nM. Moreover, the GI50 in the assay on SW480 cells worked out at 2800 nM; in the assay with HCT 116 cells it was 1100 nM.
For the compound `C[C@@H](/C=C/S(C)(=O)=O)NC(=O)c1cnc(C(F)(F)C(F)(F)F)nc1Oc1ccccc1` [Example 83, (S,E)-N-(4-(methylsulfonyl)but-3-en-2-yl)-2-(perfluoroethyl)-4-phenoxypyrimidine-5-carboxamide], the figures for the IC50 (in assay [1] (setting [2]); at WRN C727) were 238 nM and 380 nM, respectively. The GI50 was 19000 nM in the assay with SW480 cells and 202 nM in the assay with HCT 116 cells.
The corresponding values for `CC(C)(C)OC[C@@H](/C=C/S(C)(=O)=O)NC(=O)c1cnc(C(C)(F)F)nc1Oc1ccccc1` [Example 96, (R,E)-N-(1-(tert-butoxy)-4-(methylsulfonyl)but-3-en-2-yl)-2-(1,1-difluoroethyl)-4-phenoxypyrimidine-5-carboxamide] are 200 nM, 400 nM, 27500 nM and 36.9 nM.
As for `C[C@@H](/C=C/S(C)(=O)=O)NC(=O)c1cnc(N2C3CCC2CC3)nc1Oc1ccccc1` [Example 166, (S,E)-2-(7-azabicyclo[2.2.1]heptan-7-yl)-N-(4-(methylsulfonyl)but-3-en-2-yl)-4-phenoxypyrimidine-5-carboxamide], the IC50 in assay [1] (setting [2]) came to 3600 nM; on WRN C727, 8930 nM. Besides, the GI50 was greater than 10000 nM in the assay with SW480 cells and 690 nM with HCT 116 cells.
As for `CC(C)(C)c1ncc(C(=O)N[C@H](/C=C/S(C)(=O)=O)C2CC2)c(O[C@H]2C[C@@H]3C[C@@H]3C2)n1` [Example 160, 4-(((1R,3s,5S)-bicyclo[3.1.0]hexan-3-yl)oxy)-2-(tert-butyl)-N—((S,E)-1-cyclopropyl-3-(methylsulfonyl)allyl)pyrimidine-5-carboxamide], the IC50 in assay [1] (setting [2]) was 900 nM; on WRN C727 it was 6000 nM. Moreover, the GI50 with SW480 cells is 3400 nM; in the assay with HCT 116 cells it was 150 nM.
Consider `C[C@@H](/C=C/S(C)(=O)=O)NC(=O)c1cnc(CC(F)(F)F)nc1Oc1ccccc1` [Example 260, (S,E)-N-(4-(methylsulfonyl)but-3-en-2-yl)-4-phenoxy-2-(2,2,2-trifluoroethyl)pyrimidine-5-carboxamide], for which the IC50 is 8200 nM in assay [1] (setting [2]) and greater than 100000 nM on WRN C727. Also, the values for the GI50 in the assay with SW480 cells and with HCT 116 cells were 41000 nM and 1800 nM, respectively.
The like results for `CS(=O)(=O)/C=C/[C@@H](NC(=O)c1cnc([C@H]2C[C@@H](C)C2)nc1Oc1ccccc1)C1CC1` (single isomer, unassigned) [Example 48] were, in that order, 62 nM, 35 nM, 5970 nM and 36.5 nM.
The like results for `C[C@@H](/C=C/S(C)(=O)=O)NC(=O)c1ccc(C(C)(F)F)nc1Oc1ccccc1` [Example 232, (S,E)-6-(1,1-difluoroethyl)-N-(4-(methylsulfonyl)but-3-en-2-yl)-2-phenoxynicotinamide] were, in that order, 300 nM, 2360 nM, 28100 nM and 69.9 nM.
For the compound `CS(=O)(=O)/C=C/CNC(=O)c1cnc(C2CCCCC2)nc1Oc1ccccc1` [Example 76, (E)-2-cyclohexyl-N-(3-(methylsulfonyl)allyl)-4-phenoxypyrimidine-5-carboxamide], the IC50 in assay [1] (setting [2]) amounted to 4900 nM; at WRN C727 it was 50000 nM. In addition, the GI50 in the assay with SW480 cells is greater than 10000 nM; in the assay on HCT 116 cells, 3400 nM.
The corresponding values for `C[C@@H](/C=C/S(C)(=O)=O)NC(=O)c1cnc(C2CCCC2)nc1Oc1ccccc1O` [Example 137, (S,E)-2-cyclopentyl-4-(2-hydroxyphenoxy)-N-(4-(methylsulfonyl)but-3-en-2-yl)pyrimidine-5-carboxamide] are 3400 nM, 10000 nM, greater than 10000 nM and 980 nM.
The corresponding values for `C[C@@H](/C=C/S(C)(=O)=O)NC(=O)c1cnc(C2(O)CCCC2)nc1Oc1ccccc1` [Example 216, (S,E)-2-(1-hydroxycyclopentyl)-N-(4-(methylsulfonyl)but-3-en-2-yl)-4-phenoxypyrimidine-5-carboxamide] are 7740 nM, 13800 nM, greater than 10000 nM and 2200 nM.
The corresponding values for `C[C@@H](/C=C/S(C)(=O)=O)NC(=O)c1c(N)nc(C2CCCC2)nc1Oc1ccccc1` [Example 255, (S,E)-4-amino-2-cyclopentyl-N-(4-(methylsulfonyl)but-3-en-2-yl)-6-phenoxypyrimidine-5-carboxamide] are 1140 nM, 3770 nM, greater than 12600 nM and 329 nM.
As for `C[C@@H](/C=C/S(C)(=O)=O)NC(=O)c1cnc(C2CCCO2)nc1Oc1ccccc1` (stereo partly drawn) [Example 78, N—((S,E)-4-(methylsulfonyl)but-3-en-2-yl)-4-phenoxy-2-(tetrahydrofuran-2-yl)pyrimidine-5-carboxamide], the IC50 is 9330 nM in assay [1] (setting [2]) and 50000 nM at WRN C727. Also, the figures for the GI50 in the assay with SW480 cells and in the assay on HCT 116 cells were greater than 10000 nM and 2600 nM, respectively.
In the case of `CCC(F)(F)c1ncc(C(=O)N[C@H](/C=C/S(C)(=O)=O)C2CC2)c(Oc2ccccc2)n1` [Example 230, (S,E)-N-(1-cyclopropyl-3-(methylsulfonyl)allyl)-2-(1,1-difluoropropyl)-4-phenoxypyrimidine-5-carboxamide], the IC50 is 110 nM in assay [1] (setting [2]) and 810 nM at WRN C727. Further, the GI50 is 14000 nM in the assay on SW480 cells and 16.6 nM in the assay with HCT 116 cells.
